Data from ChEMBL document CHEMBL1201862, “PubChem BioAssay data set” (2004).
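Test compounds were applied to cells in 96-well plates for 48 hours at 5 doses. GI50 marks 50% less growth.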 Activity calls are given as the source filed them. Rule as the data show it: active = GI50 up to about 1.1 µM and inactive = higher.

Legend:
Assay in all cases: growth of human tumour cells (NCI), 48 h
786-0 = tested on: 786-0
A498 = tested on: A498
A549 = tested on: A549
ACHN = tested on: ACHN
BT-549 = tested on: BT-549
CAKI-1 = tested on: CAKI-1
CCRF-CEM = tested on: CCRF-CEM
DU-145 = tested on: DU-145
EKVX = tested on: EKVX
HCC 2998 = tested on: HCC 2998
HCT-116 = tested on: HCT-116
HCT-15 = tested on: HCT-15
HL-60 = tested on: HL-60
HOP-62 = tested on: HOP-62
HOP-92 = tested on: HOP-92
HT-29 = tested on: HT-29
IGROV-1 = tested on: IGROV-1
K562 = tested on: K562
KM12 = tested on: KM12
LOX IMVI = tested on: LOX IMVI
M14 = tested on: M14
MDA-MB-231 = tested on: MDA-MB-231
MDA-N = tested on: MDA-N
MOLT-4 = tested on: MOLT-4
Malme-3M = tested on: Malme-3M
NCI-H226 = tested on: NCI-H226
NCI-H23 = tested on: NCI-H23
NCI-H460 = tested on: NCI-H460
NCI-H522 = tested on: NCI-H522
OVCAR-3 = tested on: OVCAR-3
OVCAR-4 = tested on: OVCAR-4
OVCAR-5 = tested on: OVCAR-5
OVCAR-8 = tested on: OVCAR-8
PC-3 = tested on: PC-3
RPMI-8226 = tested on: RPMI-8226
RXF 393 = tested on: RXF 393
SF-268 = tested on: SF-268
SF-295 = tested on: SF-295
SF-539 = tested on: SF-539
SK-MEL-28 = tested on: SK-MEL-28
SK-MEL-2 = tested on: SK-MEL-2
SK-MEL-5 = tested on: SK-MEL-5
SN12C = tested on: SN12C
SNB-19 = tested on: SNB-19
SNB-75 = tested on: SNB-75
SR = tested on: SR
SW-620 = tested on: SW-620
T47D = tested on: T47D
TK-10 = tested on: TK-10
UACC-257 = tested on: UACC-257
UACC-62 = tested on: UACC-62
UO-31 = tested on: UO-31
COLO 205 = tested on: COLO 205
Hs-578T = tested on: Hs-578T
MCF7 = tested on: MCF7
MDA-MB-435 = tested on: MDA-MB-435
NCI/ADR-RES = tested on: NCI/ADR-RES
U-251 = tested on: U-251
SK-OV-3 = tested on: SK-OV-3

Measured: GI50

Cc1cc(C)c2c(c1)C/C(=C\c1cccc(C)c1C(=O)O)C2=O
49.5 µM: HCT-15
inactive: 786-0 57.3 µM | A498 63.1 µM | A549 43.3 µM | ACHN 87.7 µM | BT-549 42.9 µM | CAKI-1 > 100 µM | CCRF-CEM 36.6 µM | DU-145 52.2 µM | EKVX 60.7 µM | HCC 2998 66.5 µM | HCT-116 45.9 µM | HL-60 > 100 µM | HOP-62 55 µM | HOP-92 > 100 µM | HT-29 72.6 µM | IGROV-1 50.7 µM | K562 31.1 µM | KM12 51.6 µM | LOX IMVI 69.5 µM | M14 88.9 µM | MDA-MB-231 36.1 µM | MDA-N 35.3 µM | MOLT-4 50.5 µM | Malme-3M 58.1 µM | NCI-H226 44.2 µM | NCI-H23 63.2 µM | NCI-H460 41.8 µM | NCI-H522 30.8 µM | OVCAR-3 54.5 µM | OVCAR-4 75 µM | OVCAR-5 99.5 µM | OVCAR-8 52.7 µM | PC-3 39.5 µM | RPMI-8226 68.5 µM | RXF 393 72.9 µM | SF-268 24.4 µM | SF-295 78 µM | SF-539 37.2 µM | SK-MEL-28 87.9 µM | SK-MEL-2 89.9 µM | SK-MEL-5 34.7 µM | SN12C 42.6 µM | SNB-19 59.6 µM | SNB-75 55 µM | SR > 100 µM | SW-620 64.4 µM | T47D > 100 µM | TK-10 > 100 µM | UACC-257 33.3 µM | UACC-62 47.8 µM | UO-31 39.6 µM

N=C(N)N/N=C/c1c(-c2cccc([N+](=O)[O-])c2)nc2n1CCS2
33.1 µM: HCT-15
inactive: 786-0 29.3 µM | A498 17 µM | A549 18.5 µM | ACHN 17.7 µM | BT-549 15.9 µM | CAKI-1 31.7 µM | CCRF-CEM 22.2 µM | COLO 205 8.32 µM | DU-145 19 µM | EKVX 25.4 µM | HCC 2998 19.4 µM | HCT-116 20.5 µM | HL-60 19.1 µM | HOP-62 22.4 µM | HOP-92 14.9 µM | HT-29 15.7 µM | Hs-578T 7.1 µM | IGROV-1 15.6 µM | K562 11.2 µM | KM12 18.4 µM | LOX IMVI 16.6 µM | M14 24.4 µM | MCF7 11 µM | MDA-MB-231 16.7 µM | MDA-MB-435 28.2 µM | MOLT-4 11.4 µM | Malme-3M 18.9 µM | NCI-H226 20.3 µM | NCI-H23 25.5 µM | NCI-H460 22.8 µM | NCI-H522 16.3 µM | NCI/ADR-RES 77.6 µM | OVCAR-3 30.3 µM | OVCAR-4 13.9 µM | OVCAR-5 35 µM | OVCAR-8 16.7 µM | PC-3 16.9 µM | RPMI-8226 34.9 µM | RXF 393 19.3 µM | SF-268 19.6 µM | SF-295 26.2 µM | SF-539 20 µM | SK-MEL-28 19.8 µM | SK-MEL-2 17.2 µM | SK-MEL-5 14.8 µM | SN12C 22.7 µM | SNB-19 13.8 µM | SNB-75 9.68 µM | SR 12.7 µM | SW-620 5.45 µM | T47D 8.02 µM | TK-10 23.4 µM | U-251 14.9 µM | UACC-257 19.1 µM | UACC-62 17.9 µM | UO-31 15.5 µM

COc1cccc(-n2c(N)c(-c3nc4cc(C(F)(F)F)ccc4s3)c3ccc([N+](=O)[O-])cc3c2=O)c1
inactive: 786-0 > 100 µM | A498 > 100 µM | A549 > 100 µM | ACHN > 100 µM | BT-549 > 100 µM | CAKI-1 > 100 µM | COLO 205 > 100 µM | DU-145 > 100 µM | EKVX > 100 µM | HCC 2998 > 100 µM | HCT-116 > 100 µM | HOP-62 > 100 µM | HOP-92 > 100 µM | HT-29 > 100 µM | K562 > 100 µM | KM12 > 100 µM | M14 > 100 µM | MCF7 > 100 µM | MDA-MB-231 > 100 µM | MDA-MB-435 > 100 µM | MDA-N > 100 µM | MOLT-4 > 100 µM | Malme-3M > 100 µM | NCI-H226 > 100 µM | NCI-H23 > 100 µM | NCI-H460 > 100 µM | NCI-H522 > 100 µM | NCI/ADR-RES > 100 µM | OVCAR-3 > 100 µM | OVCAR-4 > 100 µM | OVCAR-5 > 100 µM | PC-3 > 100 µM | RPMI-8226 > 100 µM | SF-268 > 100 µM | SF-295 > 100 µM | SK-MEL-28 > 100 µM | SK-MEL-2 > 100 µM | SK-MEL-5 > 100 µM | SK-OV-3 > 100 µM | SN12C > 100 µM | SNB-19 > 100 µM | SNB-75 > 100 µM | T47D > 100 µM | TK-10 > 100 µM | U-251 > 100 µM | UACC-257 > 100 µM | UACC-62 > 100 µM | UO-31 > 100 µM
> 100 µM: HCT-15
